Values of other authors, collected in US4528378A, “Substituted 3,4-diamino-1,2,5-thiadiazoles having histamine H2 -receptor antagonist activity” (Bristol-Myers Company, priority 1984, dated 1985).

System: peptic ulcer disease
Settings: Gray et al., Lancet, 1, 8001 (1977)

Compound: CN/C(=N/CCSCc1nc[nH]c1C)NC#N [cimetidine]
- clinical efficacy in treatment of peptic ulcer disease: effective therapeutic agent in the treatment of peptic ulcer disease
